Drawing on patent US9290511B2, “Thieno-pyrimidines, useful as potassium channel inhibitors” (XENTION LIMITED, priority 2011, dated 2016), this text covers IC50 for 39 compounds.

This assay has as its target T1, Kir3.1/3.4 (Rattus norvegicus, UniProt P48548+P63251).
T1 construct: expressed in transfected cells
T1 sequence (P63251 1-501): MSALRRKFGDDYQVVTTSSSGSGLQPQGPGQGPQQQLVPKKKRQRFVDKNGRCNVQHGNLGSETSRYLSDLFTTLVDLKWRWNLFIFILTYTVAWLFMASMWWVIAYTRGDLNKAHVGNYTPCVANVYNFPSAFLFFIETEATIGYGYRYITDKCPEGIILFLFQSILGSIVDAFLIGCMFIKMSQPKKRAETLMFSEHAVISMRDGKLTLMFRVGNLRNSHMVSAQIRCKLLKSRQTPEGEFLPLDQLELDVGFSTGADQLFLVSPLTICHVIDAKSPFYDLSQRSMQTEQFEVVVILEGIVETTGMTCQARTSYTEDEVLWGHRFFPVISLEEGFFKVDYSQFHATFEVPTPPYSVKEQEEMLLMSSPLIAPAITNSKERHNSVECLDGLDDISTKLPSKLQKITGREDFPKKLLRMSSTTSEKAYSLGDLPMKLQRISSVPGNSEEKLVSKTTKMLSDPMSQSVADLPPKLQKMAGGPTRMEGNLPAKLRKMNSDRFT
T1 sequence (P48548 1-419): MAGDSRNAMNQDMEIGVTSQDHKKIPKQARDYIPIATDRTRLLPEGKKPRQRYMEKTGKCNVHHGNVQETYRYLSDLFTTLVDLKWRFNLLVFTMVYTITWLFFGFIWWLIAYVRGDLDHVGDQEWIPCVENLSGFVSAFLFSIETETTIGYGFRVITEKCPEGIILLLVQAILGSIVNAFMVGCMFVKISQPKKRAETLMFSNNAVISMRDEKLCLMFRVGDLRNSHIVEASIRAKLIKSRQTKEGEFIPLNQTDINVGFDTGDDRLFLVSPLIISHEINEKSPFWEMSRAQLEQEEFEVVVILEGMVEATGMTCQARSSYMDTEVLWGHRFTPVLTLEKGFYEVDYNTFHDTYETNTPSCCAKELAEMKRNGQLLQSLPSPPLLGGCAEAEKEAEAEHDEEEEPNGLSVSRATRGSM
The experiment in a line: Kir3.1/3.4 Electrophysiology Method (manual whole-cell patch clamp). Type of assay: cell-based. The conditions noted are these: Electrophysiology Method (TABLE 1). Here is the method:
Compound activity against the recombinant G-protein activated inward rectifier current encoded by the heterotetramer Kir3.1/3.4 was assessed using manual whole-cell patch technique. The heterotetramer forms the pore-forming channel that conducts the acetylcholine/adenosine-activated potassium current in the heart.
For whole-cell patch-clamp studies, cells (Human Embryonic Kidney 293 stably transfected with rat Kir3.1/3.4) were seeded onto glass coverslips before recordings were made. Cells were seeded in sterile 30 mm Petri dishes at a density to enable isolated cells to be selected for patch clamp experiments. The dishes were stored in a humidified, gassed (5% CO2) incubator at 37° C. until use.
Whole-cell patch-clamp recordings of membrane currents were made following gigaohm seal formation between the patch electrode and the cell using HEKA EPC-9/10 amplifiers controlled by Pulse Software (Ver8.5x/8.6×/8.7×, HEKA, Germany). Coverslips seeded with cells were placed in a recording chamber mounted on the stage of an inverted microscope. During the experiment, the cell of interest was continuously superfused with bather solution delivered via a cannula placed in close proximity to the cell to enable control of the extracellular solution environment. Only those cells with a current <−500 pA (current at −140 mV) were used for experiments. During experiments, series resistance was compensated by a minimum of 70%.
Electrophysiology voltage-step protocols and analysis of data were performed as follows. Data was sampled at 5 kHz, and filtered with a −3 dB bandwidth of 2.5 kHz. Cells were held at a voltage of −60 mV. Currents were evoked by a depolarising voltage step to +60 mV (100 ms) before a ramp-repolarisation (0.4 V·s^−1) to −140 mV (100 ms) before returning to −60 mV. The command waveform was repeatedly applied every 10 s throughout the experiment. Mean currents during 1-99% of the time at −140 mV were analysed using Pulsefit software (v8.x, HEKA, Germany). The voltage protocol was repeatedly applied to achieve a stable current baseline in bather before the test substance was superfused via the cannula in close proximity to the cell under investigation. The test substance was allowed to equilibrate during which time voltage protocol was repeatedly applied and recorded. On reaching steady-state inhibition, the cell was superfused with an identical bather solution containing zero external potassium chloride (replaced by equimolar NaCl). The identical current measurement was made in the absence of potassium to assess the passive leak at −140 mV. The leak current was subtracted from the control and steady-state drug current values. The percentage inhibition of the leak-subtracted current in the presence of test substance was calculated relative to the control leak-subtracted pre-drug value. Internal patch-pipette solution contained in mM: 110 KCl, 20 NaCl, 0.9 GTPγS, 5 Mg-ATP, 5 EGTA, 10 HEPES, pH7.2 corrected with KOH. The external superfusate composition in mM was: 150 (or 160) NaCl, 10 (or 0) KCl, 3 CaCl2, 1 MgCl, 10 HEPES, pH 7.4 corrected with NaOH.
(In general: In patch-clamp work, channel activity is measured electrically.)
Compound `COc1ccccc1-c1csc2ncnc(N3C4CCC3CC(CNC3CCC3)C4)c12` (stereo not drawn) [Example 367] had a half-inhibitory concentration (IC50) of less than 500 nM.

`COCCNc1nc(N2CCC(CN3CCCC(N(C)C)C3)CC2)c2c(-c3ccccc3)csc2n1` (stereo not drawn) [Example 124] showed an IC50 of less than 500 nM.

On to `c1ccc(-c2csc3nc(OC4CC5CC4CN5)nc(N4C5CCC4COC5)c23)cc1` (stereo not drawn) [Example 349, 8-[2-(2-azabicyclo[2.2.1]heptan-5-yloxy)-5-phenyl-thieno[2,3-d]pyrimidin-4-yl]-3-oxa-8-azabicyclo[3.2.1]octane], for which the half-inhibitory concentration (IC50) is less than 500 nM.

In the case of `CN(C)C(=O)c1cccc(-c2csc3ncnc(N4CCC(COCCN5CCCC5)CC4)c23)c1` [Example 332], the half-inhibitory concentration (IC50) lay within 500 to 3000 nM.

`CC(C)NC(=O)c1sc2ncnc(N3CCC(CN(C)C4CCN(C)C4)CC3)c2c1-c1ccccc1` (stereo not drawn) [Example 132] yielded an IC50 of less than 500 nM.

Compound `COc1ncccc1-c1csc2ncnc(N3C4CCC3CC(COCCN3CCCC3)C4)c12` (stereo not drawn) [Example 363] showed an IC50 of less than 500 nM.

`NC(=O)C1CCN(c2nc(N3CCC(COCCN4CCOCC4)CC3)c3c(-c4ccccc4)csc3n2)C1` (stereo not drawn) [Example 258] yielded an IC50 of less than 500 nM.

`CN1CCC[C@H]1CCNCC1CCN(c2ncnc3scc(-c4ccccc4)c23)CC1` [Example 100]: the 50% inhibitory concentration (IC50) is less than 500 nM.

For the compound `c1cncc(-c2csc3ncnc(N4CCC(COCCN5CCCC5)CC4)c23)c1` [Example 324], the IC50 lay in the range of 500 to 3000 nM.

Take `CC(C)NCC1CC2CCC(C1)N2c1ncnc2scc(-c3ccccc3)c12` (stereo not drawn) [Example 334]: the half-inhibitory concentration (IC50) was less than 500 nM.

The compound `CC(C)c1csc2ncnc(N3CC4CC3CC4OCCN3CC[C@H](F)C3)c12` (stereo partly drawn) [Example 294] displayed a half-maximal inhibitory concentration (IC50) of less than 500 nM.

For `O=C(Cc1nc(N2CCCC2c2ccccc2)c2c(-c3ccc(F)cc3)csc2n1)NCCN1CCCC1` (stereo not drawn) [Example 199], the half-inhibitory concentration (IC50) was less than 500 nM.

The compound `O=[N+]([O-])c1ccc(-c2csc3ncnc(N4CCC(COCCN5CCCC5)CC4)c23)cc1` [Example 46, 5-(4-nitrophenyl)-4-[4-(2-pyrrolidin-1-ylethoxymethyl)-1-piperidyl]thieno[2,3-d]pyrimidine] came in with a 50% inhibitory concentration (IC50) of less than 500 nM.

As to `CC(=O)N1CCCC1CCN(C)CC1CCN(c2ncnc3scc(-c4ccccc4)c23)CC1` (stereo not drawn) [Example 89, 1-[2-[2-[methyl-[[1-(5-phenylthieno[2,3-d]pyrimidin-4-yl)-4-piperidyl]methyl]amino]ethyl]pyrrolidin-1-yl]ethanone], the half-maximal inhibitory concentration (IC50) was 500 to 3000 nM.

In turn, `CC(=O)N(C)C1CCN(c2nc(N3CCC(CN(C)C4CCN(C)C4)CC3)c3c(-c4ccccc4)csc3n2)CC1` (stereo not drawn) [Example 241] had a concentration for half-maximal inhibition (IC50) of less than 500 nM.

In turn, `CN1CCCC1COCC1CCN(c2ncnc3scc(-c4ccccc4)c23)CC1` (stereo not drawn) [Example 7, 4-[4-[(1-methylpyrrolidin-2-yl)methoxymethyl]-1-piperidyl]-5-phenyl-thieno[2,3-d]pyrimidine] returned an IC50 of less than 500 nM.

Compound `Fc1ccc(C2CCN(CC3CCN(c4ncnc5scc(-c6ccccc6)c45)CC3)C2)cc1` (stereo not drawn) [Example 70, 4-[4-[[3-(4-fluorophenyl)pyrrolidin-1-yl]methyl]-1-piperidyl]-5-phenyl-thieno[2,3-d]pyrimidine] registered a half-inhibitory concentration (IC50) of less than 500 nM.

As to `CN(C)C1CCN(c2nc(N3CCC(O)C3)nc3scc(-c4ccccc4)c23)CC1` (stereo not drawn) [Example 188], the IC50 was 500 to 3000 nM.

In turn, `CC(C)NC(=O)c1sc2ncnc(N3C4CCC3CC(N3CCCC3)C4)c2c1-c1ccccc1` (stereo not drawn) [Example 354] showed an IC50 of less than 500 nM.

`COCC1CCN(c2nc(NCCN(C)C)nc3scc(-c4ccccc4)c23)CC1` [Example 173]: the 50% inhibitory concentration (IC50) is less than 500 nM.

`c1ccc(-c2csc3ncnc(N4CCC(CNCCN5CCCC5)CC4)c23)cc1` [Example 206] came in with an IC50 of less than 500 nM.

`c1ccc(-c2csc3ncnc(N4C5CCC4CC(CN4CCCC4)C5)c23)cc1` (stereo not drawn) [Example 335]: the IC50 is less than 500 nM.

For the compound `c1ccc(-c2csc3nc(C4CC4)nc(N4C5CCC4CC(N4CCC4)C5)c23)cc1` (stereo not drawn) [Example 322], the half-maximal inhibitory concentration (IC50) is less than 500 nM.

The compound `NC(=O)C1CCN(CCOCC2CCN(c3ncc4c(-c5ccccc5)csc4n3)CC2)C1` (stereo not drawn) [Example 153] returned a 50% inhibitory concentration (IC50) of less than 500 nM.

As to `COCC1CCN(c2nc(N3C4CCC3CC(O)C4)nc3scc(-c4ccccc4)c23)CC1` (stereo not drawn) [Example 299], the IC50 was in the range of 500 to 3000 nM.

`OCC(Cc1ccccc1)NCC1CCN(c2ncnc3scc(-c4ccccc4)c23)CC1` (stereo not drawn) [Example 57, 3-phenyl-2-[[1-(5-phenylthieno[2,3-d]pyrimidin-4-yl)-4-piperidyl]methylamino]propan-1-ol] showed an IC50 of less than 500 nM.

Regarding `NC(=O)C1CCN(c2nc(N3CCC(COCCN4CCCC4)CC3)nc3scc(-c4ccccc4)c23)C1` (stereo not drawn) [Example 274], the IC50 is less than 500 nM.

As to `CN(C)[C@H]1CCCN(CC2CCN(c3ncnc4scc(-c5ccccc5)c34)CC2)C1` [Example 215], the concentration for half-maximal inhibition (IC50) is less than 500 nM.

Compound `CNC(=O)c1sc2ncnc(N3CCC(COCCN4CCCC4)CC3)c2c1C(C)C` [Example 134] returned an IC50 of 500 to 3000 nM.

`COCC1CC2CCC(C1)N2c1nc(N2CCOCC2)c2c(-c3ccccc3)csc2n1` (stereo not drawn) [Example 300] had an IC50 of 500 to 3000 nM.

In the case of `CN(C)C1CCCN(CC2CCN(c3ncnc4scc(-c5ccc(F)cc5)c34)CC2)C1` (stereo not drawn) [Example 79, 1-[[1-[5-(4-fluorophenyl)thieno[2,3-d]pyrimidin-4-yl]-4-piperidyl]methyl]-N,N-dimethyl-piperidin-3-amine], the half-maximal inhibitory concentration (IC50) was less than 500 nM.

For `Cc1ccccc1-c1csc2ncnc(N3C4CCC3CC(NC3CCC3)C4)c12` (stereo not drawn) [Example 344], the half-inhibitory concentration (IC50) was less than 500 nM.

As to `NC(=O)[C@H]1CCCN1CCOCC1C2CN(c3ncnc4scc(-c5ccc(F)cc5)c34)CC12` (stereo partly drawn) [Example 45, (2R)-1-[2-[[3-[5-(4-fluorophenyl)thieno[2,3-d]pyrimidin-4-yl]-3-azabicyclo[3.1.0]hexan-6-yl]methoxy]ethyl]pyrrolidine-2-carboxamide], the IC50 was less than 500 nM.

Take `CN(C)C1CCN(CC2CCN(c3nc(N4CCC(C(N)=O)C4)nc4scc(-c5ccccc5)c34)CC2)CC1` (stereo not drawn) [Example 235]: the half-inhibitory concentration (IC50) was less than 500 nM.

Regarding `O=C(NCCN1CCCC1)C1CCCN(c2ncnc3scc(-c4ccccc4)c23)C1` (stereo not drawn) [Example 268], the 50% inhibitory concentration (IC50) is less than 500 nM.

`CN1CCN(c2nc(N3CCC(CNC4CCC4)CC3)c3c(-c4ccccc4)csc3n2)CC1` [Example 116] gave an IC50 of less than 500 nM.

For `CC1CCC(C)N1CC1CCN(c2ncnc3scc(-c4ccccc4)c23)CC1` (stereo not drawn) [Example 98, 4-[4-[(2,5-dimethylpyrrolidin-1-yl)methyl]-1-piperidyl]-5-phenyl-thieno[2,3-d]pyrimidine], the IC50 was 500 to 3000 nM.

Compound `CN(CC1CCN(c2ncnc3scc(-c4ccccc4)c23)CC1)CC1CCCN1` (stereo not drawn) [Example 83, N-methyl-1-[1-(5-phenylthieno[2,3-d]pyrimidin-4-yl)-4-piperidyl]-N-(pyrrolidin-2-ylmethyl)methanamine] had a half-maximal inhibitory concentration (IC50) of less than 500 nM.

The compound `COCC1CC2CCC(C1)N2c1nc(OC2CC3CC2CN3)nc2scc(-c3ccccc3)c12` (stereo not drawn) [Example 352] yielded an IC50 of less than 500 nM.

The IC50 is the concentration at which inhibition is half-maximal.
